Results reported in PubChem BioAssay AID248 (DTP/NCI, 2004).
Inconclusive results and toxic doses are left out. Cut-off read from the data, not from the text of the source: active = T/C of 150% or more; inactive = T/C below 125%.

Test system: L1210 leukemia ip in BDF1 mice, survival T/C
Test: NCI In Vivo Anticancer Drug Screen. Data for tumor model L1210 Leukemia (intraperitoneal) in B6D2F1 (BDF1) mice
Conditions: endpoint: mean survival time, higher = longer survival
Procedure, shortened: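 Survival endpoint. Drug-treated group vs vehicle group, expressed as T divided by C. Tumor passaged by transplantation.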

[1] = dose: 100.0 mg/kg/injection, schedule: Q04DX003 (ip), vehicle: saline with Tween-80
[2] = dose: 200.0 mg/kg/injection, schedule: Q04DX003 (ip), vehicle: saline with Tween-80
[3] = dose: 400.0 mg/kg/injection, schedule: Q04DX003 (ip), vehicle: saline with Tween-80
[4] = dose: 50.0 mg/kg/injection, schedule: Q01DX009 (ip), vehicle: saline with Tween-80
[5] = dose: 50.0 mg/kg/injection, schedule: Q04DX003 (ip), vehicle: saline with Tween-80
[6] = dose: 100.0 mg/kg/injection, schedule: Q01DX009 (ip), vehicle: saline with Tween-80
[7] = dose: 50.0 mg/kg/injection, schedule: Q01DX009 (ip), vehicle: Klucel (hydroxypropylcellulose) (HPC)
[8] = dose: 100.0 mg/kg/injection, schedule: Q01DX009 (ip), vehicle: Klucel (hydroxypropylcellulose) (HPC)
[9] = dose: 200.0 mg/kg/injection, schedule: Q01DX009 (ip), vehicle: Klucel (hydroxypropylcellulose) (HPC)
[10] = dose: 100.0 mg/kg/injection, schedule: Q01DX001 (ip), vehicle: saline
[11] = dose: 100.0 mg/kg/injection, schedule: Q04DX002 (ip), vehicle: Klucel (hydroxypropylcellulose) (HPC)
[12] = dose: 200.0 mg/kg/injection, schedule: Q04DX002 (ip), vehicle: Klucel (hydroxypropylcellulose) (HPC)
[13] = dose: 400.0 mg/kg/injection, schedule: Q04DX002 (ip), vehicle: Klucel (hydroxypropylcellulose) (HPC)
[14] = dose: 100.0 mg/kg/injection, schedule: Q04DX003 (ip), vehicle: Klucel (hydroxypropylcellulose) (HPC)
[15] = dose: 200.0 mg/kg/injection, schedule: Q04DX003 (ip), vehicle: Klucel (hydroxypropylcellulose) (HPC)

Measured: T/C

C[n+]1cccc(O)c1
inactive: dose: 67.0 mg/kg/injection, schedule: Q04DX003 (ip), vehicle: saline 105 % of control | dose: 100.0 mg/kg/injection, schedule: Q01DX009 (ip), vehicle: saline 90 % of control | dose: 100.0 mg/kg/injection, schedule: Q04DX003 (ip), vehicle: saline 107 % of control | dose: 150.0 mg/kg/injection, schedule: Q04DX003 (ip), vehicle: saline 105 % of control | dose: 200.0 mg/kg/injection, schedule: Q01DX009 (ip), vehicle: saline 93 % of control | dose: 200.0 mg/kg/injection, schedule: Q04DX003 (ip), vehicle: saline 124 % of control | dose: 400.0 mg/kg/injection, schedule: Q01DX009 (ip), vehicle: saline 92 % of control | dose: 400.0 mg/kg/injection, schedule: Q04DX003 (ip), vehicle: saline 97 % of control

Cc1ccccc1N
inactive: [1] 101 % of control | [2] 103 % of control | [3] 95 % of control

c1ccc(-c2cc[c]([Sn]([c]3ccccc3)([c]3ccccc3)[c]3ccccc3)cc2)cc1
inactive: dose: 100.0 mg/kg/injection, schedule: Q04DX002 (ip), vehicle: other 103 % of control | dose: 200.0 mg/kg/injection, schedule: Q04DX002 (ip), vehicle: other 107 % of control | dose: 400.0 mg/kg/injection, schedule: Q04DX002 (ip), vehicle: other 96 % of control

CCOC(=O)CCCN(c1[nH]c(C)c(C)c1C#N)S(=O)(=O)c1ccc(C)cc1
inactive: [4] 93 % of control | [5] 93 % of control | [6] 96 % of control | [1] 90 % of control | dose: 200.0 mg/kg/injection, schedule: Q01DX009 (ip), vehicle: saline with Tween-80 90 % of control | [2] 101 % of control | dose: 400.0 mg/kg/injection, schedule: Q01DX009 (ip), vehicle: saline with Tween-80 100 % of control | [3] 95 % of control

O=[N+]([O-])/C=C/c1ccc2ccccc2c1
inactive: dose: 12.5 mg/kg/injection, schedule: Q01DX009 (ip), vehicle: carboxymethylcellulose (CMC) 104 % of control | dose: 25.0 mg/kg/injection, schedule: Q01DX009 (ip), vehicle: carboxymethylcellulose (CMC) 101 % of control | [7] 107 % of control | dose: 50.0 mg/kg/injection, schedule: Q01DX009 (ip), vehicle: carboxymethylcellulose (CMC) 100 % of control | dose: 100.0 mg/kg/injection, schedule: Q01DX001 (ip), vehicle: other 100 % of control | [8] 104 % of control | dose: 100.0 mg/kg/injection, schedule: Q01DX009 (ip), vehicle: carboxymethylcellulose (CMC) 101 % of control | dose: 200.0 mg/kg/injection, schedule: Q01DX001 (ip), vehicle: other 91 % of control | [9] 93 % of control | dose: 400.0 mg/kg/injection, schedule: Q01DX001 (ip), vehicle: other 96 % of control

NC(N)=NN=C1CCCCC1
inactive: dose: 15.0 mg/kg/injection, schedule: Q01DX Z (ip), vehicle: saline 92 % of control | dose: 30.0 mg/kg/injection, schedule: Q01DX Z (ip), vehicle: saline 92 % of control | dose: 60.0 mg/kg/injection, schedule: Q01DX Z (ip), vehicle: saline 102 % of control | dose: 60.0 mg/kg/injection, schedule: Q01DX Z (oral), vehicle: saline 105 % of control | dose: 120.0 mg/kg/injection, schedule: Q01DX Z (ip), vehicle: saline 97 % of control | dose: 120.0 mg/kg/injection, schedule: Q01DX Z (oral), vehicle: saline 108 % of control | dose: 240.0 mg/kg/injection, schedule: Q01DX Z (oral), vehicle: saline 100 % of control | dose: 480.0 mg/kg/injection, schedule: Q01DX Z (oral), vehicle: saline 103 % of control

CCCCn1c2ccccc2c2ccccc21
inactive: [5] 96 % of control | [1] 96 % of control | [2] 102 % of control

OC(C=S)CS (stereo unspecified)
inactive: dose: 100.0 mg/kg/injection, schedule: Q04DX002 (ip), vehicle: saline with Tween-80 95 % of control | dose: 200.0 mg/kg/injection, schedule: Q04DX002 (ip), vehicle: saline with Tween-80 92 % of control | dose: 400.0 mg/kg/injection, schedule: Q04DX002 (ip), vehicle: saline with Tween-80 95 % of control

Cc1ccccc1OCC(O)COC(N)=O (stereo unspecified)
inactive: dose: 0.62 mg/kg/injection, schedule: Q04DX003 (ip), vehicle: saline 100 % of control | dose: 1.25 mg/kg/injection, schedule: Q04DX003 (ip), vehicle: saline 100 % of control | dose: 2.5 mg/kg/injection, schedule: Q04DX003 (ip), vehicle: saline 112 % of control | dose: 5.0 mg/kg/injection, schedule: Q04DX003 (ip), vehicle: saline 98 % of control | dose: 10.0 mg/kg/injection, schedule: Q04DX003 (ip), vehicle: saline 98 % of control

NC(CSSc1ccccc1)=NCC12CC3CC(CC(C3)C1)C2
inactive: dose: 10.0 mg/kg/injection, schedule: Q01DX001 (ip), vehicle: carboxymethylcellulose (CMC) 96 % of control | dose: 20.0 mg/kg/injection, schedule: Q01DX001 (ip), vehicle: carboxymethylcellulose (CMC) 98 % of control

Nc1c(F)c(F)c(-c2c(F)c(F)c(N)c(F)c2F)c(F)c1F
inactive: dose: 37.5 mg/kg/injection, schedule: Q04DX003 (ip), vehicle: saline with Tween-80 98 % of control | dose: 75.0 mg/kg/injection, schedule: Q04DX003 (ip), vehicle: saline with Tween-80 102 % of control | dose: 150.0 mg/kg/injection, schedule: Q04DX003 (ip), vehicle: saline with Tween-80 95 % of control

O=C(OCCO)c1ccc(O)cc1
inactive: [10] 88 % of control | dose: 200.0 mg/kg/injection, schedule: Q01DX001 (ip), vehicle: saline 93 % of control | dose: 400.0 mg/kg/injection, schedule: Q01DX001 (ip), vehicle: saline 88 % of control

O=C(O)c1cc(C(=O)O)cc([N+](=O)[O-])c1
inactive: [4] 93 % of control | [6] 91 % of control | [1] 95 % of control | [2] 95 % of control

CCSCCC(C)(N)C(=O)O (stereo unspecified)
inactive: [11] 97 % of control | [12] 93 % of control | [13] 89 % of control

Cc1oc2ccc(O)c(N=Nc3ccc(Cl)cc3)c2c1C
inactive: [14] 100 % of control | [15] 90 % of control | dose: 400.0 mg/kg/injection, schedule: Q04DX003 (ip), vehicle: Klucel (hydroxypropylcellulose) (HPC) 95 % of control

CSc1ncnc2c1ncn2C1OC(CCc2ccccc2)C(O)C1O (stereo unspecified)
inactive: dose: 100.0 mg/kg/injection, schedule: Q01DX001 (ip), vehicle: Klucel (hydroxypropylcellulose) (HPC) 100 % of control | dose: 200.0 mg/kg/injection, schedule: Q01DX001 (ip), vehicle: Klucel (hydroxypropylcellulose) (HPC) 96 % of control | dose: 400.0 mg/kg/injection, schedule: Q01DX001 (ip), vehicle: Klucel (hydroxypropylcellulose) (HPC) 98 % of control

O=C1COc2ccc(Cl)cc2N1
inactive: [8] 100 % of control | [9] 97 % of control | dose: 400.0 mg/kg/injection, schedule: Q01DX009 (ip), vehicle: Klucel (hydroxypropylcellulose) (HPC) 119 % of control

O=C(Oc1ccc(Cl)cc1Cl)Oc1ccc(Cl)cc1Cl
inactive: dose: 50.0 mg/kg/injection, schedule: Q01DX001 (ip), vehicle: carboxymethylcellulose (CMC) 98 % of control | [7] 105 % of control | dose: 50.0 mg/kg/injection, schedule: Q04DX003 (ip), vehicle: Klucel (hydroxypropylcellulose) (HPC) 98 % of control | dose: 100.0 mg/kg/injection, schedule: Q01DX001 (ip), vehicle: carboxymethylcellulose (CMC) 104 % of control | [8] 100 % of control | [14] 95 % of control | dose: 200.0 mg/kg/injection, schedule: Q01DX001 (ip), vehicle: carboxymethylcellulose (CMC) 104 % of control | [9] 103 % of control | [15] 106 % of control | dose: 400.0 mg/kg/injection, schedule: Q01DX001 (ip), vehicle: carboxymethylcellulose (CMC) 93 % of control

Cc1ccccc1NC1=C(Cl)C(=O)c2ccccc2C1=O
inactive: dose: 25.0 mg/kg/injection, schedule: Q04DX003 (ip), vehicle: saline 93 % of control | dose: 50.0 mg/kg/injection, schedule: Q04DX003 (ip), vehicle: saline 93 % of control | [10] 93 % of control

C=CCCCCCCCCC(=O)Nc1ccc(Cl)cc1C(=O)c1ccccc1
inactive: [11] 95 % of control | [12] 92 % of control | [13] 89 % of control
